Test results: ChEMBL document CHEMBL2380302, “Synthesis of 3-O-propargylated betulinic acid and its 1,2,3-triazoles as potential apoptotic agents” (Eur J Med Chem, 2013)

Tests used:
HCT-15 [1] = experiment: Cytotoxicity against human HCT15 cells at 10 uM after 48 hrs by SRB assay; assay type: functional; conditions: HCT-15, 48 h, read-out: GI
SF-295 [2] = experiment: Cytotoxicity against human SF295 cells at 10 uM after 48 hrs by SRB assay; assay type: functional; conditions: SF-295, 48 h, read-out: GI
A549 [3] = experiment: Cytotoxicity against human A549 cells at 10 uM after 48 hrs by SRB assay; assay type: functional; conditions: A549, 48 h, read-out: GI
MCF7 [4] = experiment: Cytotoxicity against human MCF7 cells at 10 uM after 48 hrs by SRB assay; assay type: functional; conditions: MCF7, 48 h, read-out: GI
HEp-2 [5] = experiment: Cytotoxicity against human Hep2 cells at 10 uM after 48 hrs by SRB assay; assay type: functional; conditions: HEp-2, 48 h, read-out: GI
PC-3 [6] = experiment: Cytotoxicity against human PC3 cells at 10 uM after 48 hrs by SRB assay; assay type: functional; conditions: PC-3, 48 h, read-out: GI
DU-145 [7] = experiment: Cytotoxicity against human DU145 cells at 10 uM after 48 hrs by SRB assay; assay type: functional; conditions: DU-145, 48 h, read-out: GI
HL-60 [8] = experiment: Cytotoxicity against human HL60 cells at 10 uM after 48 hrs by SRB assay; assay type: functional; conditions: HL-60, 48 h, read-out: GI
THP-1 [9] = experiment: Cytotoxicity against human THP1 cells at 10 uM after 48 hrs by SRB assay; assay type: functional; conditions: THP-1, 48 h, read-out: GI
HCT-15 [10] = experiment: Cytotoxicity against human HCT15 cells at 30 uM after 48 hrs by SRB assay; assay type: functional; conditions: HCT-15, 48 h, read-out: GI
SF-295 [11] = experiment: Cytotoxicity against human SF295 cells at 30 uM after 48 hrs by SRB assay; assay type: functional; conditions: SF-295, 48 h, read-out: GI
A549 [12] = experiment: Cytotoxicity against human A549 cells at 30 uM after 48 hrs by SRB assay; assay type: functional; conditions: A549, 48 h, read-out: GI
MCF7 [13] = experiment: Cytotoxicity against human MCF7 cells at 30 uM after 48 hrs by SRB assay; assay type: functional; conditions: MCF7, 48 h, read-out: GI
HEp-2 [14] = experiment: Cytotoxicity against human Hep2 cells at 30 uM after 48 hrs by SRB assay; assay type: functional; conditions: HEp-2, 48 h, read-out: GI
PC-3 [15] = experiment: Cytotoxicity against human PC3 cells at 30 uM after 48 hrs by SRB assay; assay type: functional; conditions: PC-3, 48 h, read-out: GI
DU-145 [16] = experiment: Cytotoxicity against human DU145 cells at 30 uM after 48 hrs by SRB assay; assay type: functional; conditions: DU-145, 48 h, read-out: GI
HL-60 [17] = experiment: Cytotoxicity against human HL60 cells at 30 uM after 48 hrs by SRB assay; assay type: functional; conditions: HL-60, 48 h, read-out: GI
THP-1 [18] = experiment: Cytotoxicity against human THP1 cells at 30 uM after 48 hrs by SRB assay; assay type: functional; conditions: THP-1, 48 h, read-out: GI
HCT-15 [19] = experiment: Cytotoxicity against human HCT15 cells at 50 uM after 48 hrs by SRB assay; assay type: functional; conditions: HCT-15, 48 h, read-out: GI
SF-295 [20] = experiment: Cytotoxicity against human SF295 cells at 50 uM after 48 hrs by SRB assay; assay type: functional; conditions: SF-295, 48 h, read-out: GI
A549 [21] = experiment: Cytotoxicity against human A549 cells at 50 uM after 48 hrs by SRB assay; assay type: functional; conditions: A549, 48 h, read-out: GI
MCF7 [22] = experiment: Cytotoxicity against human MCF7 cells at 50 uM after 48 hrs by SRB assay; assay type: functional; conditions: MCF7, 48 h, read-out: GI
HEp-2 [23] = experiment: Cytotoxicity against human Hep2 cells at 50 uM after 48 hrs by SRB assay; assay type: functional; conditions: HEp-2, 48 h, read-out: GI
PC-3 [24] = experiment: Cytotoxicity against human PC3 cells at 50 uM after 48 hrs by SRB assay; assay type: functional; conditions: PC-3, 48 h, read-out: GI
HL-60 [25] = experiment: Cytotoxicity against human HL60 cells at 50 uM after 48 hrs by SRB assay; assay type: functional; conditions: HL-60, 48 h, read-out: GI
DU-145 [26] = experiment: Cytotoxicity against human DU145 cells at 50 uM after 48 hrs by SRB assay; assay type: functional; conditions: DU-145, 48 h, read-out: GI
THP-1 [27] = experiment: Cytotoxicity against human THP1 cells at 50 uM after 48 hrs by SRB assay; assay type: functional; conditions: THP-1, 48 h, read-out: GI
HCT-15 [28] = experiment: Cytotoxicity against human HCT15 cells after 48 hrs by SRB assay; assay type: functional, cell-based; conditions: HCT-15, 48 h
A549 [29] = experiment: Cytotoxicity against human A549 cells after 48 hrs by SRB assay; assay type: functional, cell-based; conditions: A549, 48 h
SF-295 [30] = experiment: Cytotoxicity against human SF295 cells after 48 hrs by SRB assay; assay type: functional, cell-based; conditions: SF-295, 48 h
MCF7 [31] = experiment: Cytotoxicity against human MCF7 cells after 48 hrs by SRB assay; assay type: functional, cell-based; conditions: MCF7, 48 h
HEp-2 [32] = experiment: Cytotoxicity against human Hep2 cells after 48 hrs by SRB assay; assay type: functional, cell-based; conditions: HEp-2, 48 h
PC-3 [33] = experiment: Cytotoxicity against human PC3 cells after 48 hrs by SRB assay; assay type: functional, cell-based; conditions: PC-3, 48 h
DU-145 [34] = experiment: Cytotoxicity against human DU145 cells after 48 hrs by SRB assay; assay type: functional, cell-based; conditions: DU-145, 48 h
HL-60 [35] = experiment: Cytotoxicity against human HL60 cells after 48 hrs by SRB assay; assay type: functional, cell-based; conditions: HL-60, 48 h
THP-1 [36] = experiment: Cytotoxicity against human THP1 cells after 48 hrs by SRB assay; assay type: functional, cell-based; conditions: THP-1, 48 h

| Compound | inhibition of growth at 10 µM (HCT-15 [1]) | inhibition of growth at 10 µM (SF-295 [2]) | inhibition of growth at 10 µM (A549 [3]) | inhibition of growth at 10 µM (MCF7 [4]) | inhibition of growth at 10 µM (HEp-2 [5]) | inhibition of growth at 10 µM (PC-3 [6]) | inhibition of growth at 10 µM (DU-145 [7]) | inhibition of growth at 10 µM (HL-60 [8]) | inhibition of growth at 10 µM (THP-1 [9]) | inhibition of growth at 30 µM (HCT-15 [10]) | inhibition of growth at 30 µM (SF-295 [11]) | inhibition of growth at 30 µM (A549 [12]) | inhibition of growth at 30 µM (MCF7 [13]) | inhibition of growth at 30 µM (HEp-2 [14]) | inhibition of growth at 30 µM (PC-3 [15]) | inhibition of growth at 30 µM (DU-145 [16]) | inhibition of growth at 30 µM (HL-60 [17]) | inhibition of growth at 30 µM (THP-1 [18]) | inhibition of growth at 50 µM (HCT-15 [19]) | inhibition of growth at 50 µM (SF-295 [20]) | further results |
| --- | --- | --- | --- | --- | --- | --- | --- | --- | --- | --- | --- | --- | --- | --- | --- | --- | --- | --- | --- | --- | --- |
| C=C(C)[C@@H]1CC[C@]2(C(=O)O)CC[C@]3(C)[C@H](CC[C@@H]4[C@@]5(C)CC[C@H](OCc6cn(-c7cc(OC)c(OC)c(OC)c7)nn6)C(C)(C)[C@@H]5CC[C@]43C)[C@@H]12 | 47% | 28% | 25% | 50% | 8% | 8% | 3% | 41% | 35% | 35% | 51% | 26% | 71% | 38% | 30% | 10% | 51% | 44% | 43% | 51% | inhibition of growth at 50 µM (A549 [21]): 41%; inhibition of growth at 50 µM (MCF7 [22]): 74%; inhibition of growth at 50 µM (HEp-2 [23]): 48%; inhibition of growth at 50 µM (PC-3 [24]): 46%; inhibition of growth at 50 µM (HL-60 [25]): 65%; inhibition of growth at 50 µM (DU-145 [26]): 11%; inhibition of growth at 50 µM (THP-1 [27]): 58%; IC50 (HCT-15 [28]): > 50 µM; IC50 (A549 [29]): > 50 µM; IC50 (SF-295 [30]): 27 µM; IC50 (MCF7 [31]): 10 µM; IC50 (HEp-2 [32]): > 50 µM; IC50 (PC-3 [33]): > 50 µM; IC50 (DU-145 [34]): > 50 µM; IC50 (HL-60 [35]): 37 µM; IC50 (THP-1 [36]): 39 µM |
| C=C(C)[C@@H]1CC[C@]2(C(=O)O)CC[C@]3(C)[C@H](CC[C@@H]4[C@@]5(C)CC[C@H](OCc6cn(-c7ccc(CC#N)cc7)nn6)C(C)(C)[C@@H]5CC[C@]43C)[C@@H]12 | 17% | 44% | 32% | 42% | 45% | 42% | 30% | 46% | 43% | 27% | 81% | 57% | 98% | 69% | 48% | 61% | 96% | 95% | 56% | 83% | inhibition of growth at 50 µM (A549 [21]): 60%; inhibition of growth at 50 µM (MCF7 [22]): 99%; inhibition of growth at 50 µM (HEp-2 [23]): 71%; inhibition of growth at 50 µM (PC-3 [24]): 64%; inhibition of growth at 50 µM (HL-60 [25]): 98%; inhibition of growth at 50 µM (DU-145 [26]): 68%; inhibition of growth at 50 µM (THP-1 [27]): 96%; IC50 (HCT-15 [28]): 46 µM; IC50 (A549 [29]): 25 µM; IC50 (SF-295 [30]): 13 µM; IC50 (MCF7 [31]): 12 µM; IC50 (HEp-2 [32]): 13 µM; IC50 (PC-3 [33]): 32 µM; IC50 (DU-145 [34]): 23 µM; IC50 (HL-60 [35]): 11 µM; IC50 (THP-1 [36]): 12 µM |
| C=C(C)[C@@H]1CC[C@]2(C(=O)O)CC[C@]3(C)[C@H](CC[C@@H]4[C@@]5(C)CC[C@H](OCc6cn(-c7cc(I)ccc7C)nn6)C(C)(C)[C@@H]5CC[C@]43C)[C@@H]12 | 9% | 8% | 43% | 30% | 7% | 5% | 24% | 40% | 38% | 25% | 20% | 53% | 54% | 14% | 22% | 41% | 60% | 56% | 34% | 35% | inhibition of growth at 50 µM (A549 [21]): 67%; inhibition of growth at 50 µM (MCF7 [22]): 74%; inhibition of growth at 50 µM (HEp-2 [23]): 25%; inhibition of growth at 50 µM (PC-3 [24]): 4%; inhibition of growth at 50 µM (HL-60 [25]): 97%; inhibition of growth at 50 µM (DU-145 [26]): 65%; inhibition of growth at 50 µM (THP-1 [27]): 96%; IC50 (HCT-15 [28]): > 50 µM; IC50 (A549 [29]): 23 µM; IC50 (SF-295 [30]): > 50 µM; IC50 (MCF7 [31]): 27 µM; IC50 (HEp-2 [32]): > 50 µM; IC50 (PC-3 [33]): > 50 µM; IC50 (DU-145 [34]): 39 µM; IC50 (HL-60 [35]): 18 µM; IC50 (THP-1 [36]): 22 µM |
